target: T1, Ba/F3 cell EGFR Exon20 ins NPH (Homo sapiens, UniProt P00533, INS773NPH); test: Ba/F3 cell proliferation suppression, EGFR Exon20 ins NPH; format: cell-based; conditions: GI50 class; Ba/F3 cell line with NPH inserted at Exon20 of EGFR; 72 hours
T1 construct: expressed in transfected cells; host or cells: Ba/F3
Procedure, shortened: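 After 72 h compound exposure (twelve 3-fold steps, 0.3 nM–50 um final), live cells were measured by CellTiter-Glo luminescence and growth expressed as % of control to derive GI50. Cells were seeded at 3000–5000 per well a day earlier; Ba/F3 medium contained IL-3; three repeats.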

Compound | Ba/F3 (NPH) Activity
C=CC(=O)Nc1cc(Nc2cc(N3OCC[C@@H]3c3cccc(OC)c3)ncn2)c(OC)cc1N1CC[C@@H](N(C)C)C1 [compound 776, N-(2-((R)-3-(dimethylamino)pyrolidine-1-yl)-4-methoxy-5-((6-((R)-3-(3-methoxyphenyl)isoxazolidine-2-yl)pyrimidine-4-yl)amino)phenyl)acrylamide] | A (GI50 < 50 nM)
C=CC(=O)Nc1cc(Nc2cc(N3OCC[C@@H]3c3cccc(C(F)(F)F)c3)ncn2)c(OC)cc1N1CCC(N2C[C@@H]3C[C@H]2CO3)CC1 [compound 944, N-(2-(4-((1S,4S)-2-oxa-5-azabicyclo [2.2.1]heptane-5-yl)piperidine-1-yl)-4-methoxy-5-((6-((R)-3-(3-(trifluoromethyl)phenyl)isoxazolidine-2-yl)pyrimidine-4-yl)amino)phenyl) acrylamide] | A (GI50 < 50 nM)
N-(5-((6-((R)-3-(4- chloro-3-fluorophenyl) isoxazolidine-2-yl) pyrimidine-4-yl)amino)- 4-methoxy-2-((R)-3- morpholinopyrolidine- 1-yl)phenyl)acrylamide [compound 419] | A (GI50 < 50 nM)
C=CC(=O)Nc1cc(Nc2cc(N3OCC[C@@H]3c3cc(F)cc(Cl)c3)ncn2)c(OC)cc1N1CCC(N2CCOCC2)CC1 [compound 589, N-(5-((6-((R)-3-(3-chloro-5-fluorophenyl)isoxazolidine-2-yl)pyrimidine-4-yl)amino)-4-methoxy-2-(4-morpholinopiperidine-1-yl)phenyl)acrylamide] | A (GI50 < 50 nM)
C=CC(=O)Nc1cc(Nc2cc(N3OCC[C@@H]3Cc3cccc(F)c3)ncn2)c(OC)cc1N1CCC(N2CCOCC2)CC1 [compound 996, N-(5-((6-((S)-3-(3-fluorobenzyl)isoxazolidine-2-yl)pyrimidine-4-yl)amino)-4-methoxy-2-(4-morpholinopiperidine-1-yl)phenyl)acrylamide] | A (GI50 < 50 nM)
C=CC(=O)Nc1cc(Nc2cc(N3OCC[C@@H]3c3ccc(F)cc3F)ncn2)c(OC)cc1N1CCN(CCN(C)C)CC1 [compound 349, N-(5-((6-((R)-3-(2,4-difluorophenyl)isoxazolidine-2-yl)pyrimidine-4-yl)amino)-2-(4-(2-(dimethylamino)ethyl)piperazine-1-yl)-4-methoxyphenyl) acrylamide] | A (GI50 < 50 nM)
C=CC(=O)Nc1cc(Nc2cc(N3OCC[C@@H]3c3cccc(Cl)c3Cl)ncn2)c(OC)cc1N1CCC(N2CCN(C3CCOCC3)CC2)CC1 [Example 208, N-(5-((6-((R)-3-(2,3-dichlorophenyl)isoxazolidine-2-yl)pyrimidine-4-yl)amino)-4-methoxy-2-(4-(4-(tetrahydro-2H-pyran-4-yl)piperazine-1-yl)piperidine-1-yl)phenyl)acrylamide] | A (GI50 < 50 nM)
C=CC(=O)Nc1cc(Nc2cc(N3OCC[C@@H]3c3ccc(F)c(F)c3F)ncn2)c(OC)cc1N1CCC(N2CCOCC2)CC1 [compound 621, N-(4-methoxy-2-(4-morpholinopiperidine-1-yl)-5-((6-((R)-3-(2,3,4-trifluorophenyl)isoxazolidine-2-yl)pyrimidine-4-yl)amino)phenyl)acrylamide] | A (GI50 < 50 nM)
C=CC(=O)Nc1cc(Nc2cc(N3OCC[C@@H]3c3cccc(Cl)c3Cl)ncn2)c(OC)cc1N1CCC(N2CCN(CC)CC2)CC1 [compound 569, N-(5-((6-((R)-3-(2,3-dichlorophenyl)isoxazolidine-2-yl)pyrimidine-4-yl)amino)-2-(4-(4-ethylpiperazine-1-yl)piperidine-1-yl)-4-methoxyphenyl) acrylamide] | A (GI50 < 50 nM)
C=CC(=O)Nc1cc(Nc2cc(N3OCC[C@@H]3c3cc(F)cc(F)c3)ncn2)c(OC)cc1N1CCN(C2COC2)CC1 [Example 273, N-(5-((6-((R)-3-(3,5-difluorophenyl)isoxazolidine-2-yl)pyrimidine-4-yl)amino)-4-methoxy-2-(4-(oxetane-3-yl)piperazine-1-yl)phenyl)acrylamide] | B (50 nM ≤ GI50 < 500 nM)
C=CC(=O)Nc1cc(Nc2cc(N3OCC[C@@H]3c3cc(F)cc(F)c3)ncn2)c(OC)cc1N1CCC(N2CC3(COC3)C2)CC1 [Example 103, N-(2-(4-(2-oxa-6-azaspiro[3.3]heptane-6-yl)piperidine-1-yl)-5-((6-((R)-3-(3,5-difluorophenyl)isoxazolidine-2-yl)pyrimidine-4-yl)amino)-4-methoxyphenyl) acrylamide] | A (GI50 < 50 nM)
C=CC(=O)Nc1cc(Nc2cc(N3OCC[C@@H]3c3ccc(Cl)c(Cl)c3)ncn2)c(OC)cc1N(C)CCOC [compound 679, N-(5-((6-((R)-3-(3,4-dichlorophenyl)isoxazolidine-2-yl)pyrimidine-4-yl)amino)-4-methoxy-2-((2-methoxyethyl)(methyl)amino)phenyl) acrylamide] | B (50 nM ≤ GI50 < 500 nM)
C=CC(=O)Nc1cc(Nc2cc(N3OCC[C@@H]3c3cc(F)cc(Cl)c3)ncn2)c(OC)cc1N1CC(N2CCN(C3CC3)CC2)C1 [compound 587, N-(5-((6-((R)-3-(3-chloro-5-fluorophenyl)isoxazolidine-2-yl)pyrimidine-4-yl)amino)-2-(3-(4-cyclopropylpiperazine-1-yl)azetidine-1-yl)-4-methoxyphenyl) acrylamide] | B (50 nM ≤ GI50 < 500 nM)
C=CC(=O)Nc1cc(Nc2cc(N3OCC[C@@H]3c3ccc(Cl)c(F)c3)ncn2)c(OC)cc1N1CCN(C(C)=O)CC1 [compound 363, N-(2-(4-acetylpiperazine-1-yl)-5-((6-((R)-3-(4-chloro-3-fluorophenyl)isoxazolidine-2-yl)pyrimidine-4-yl)amino)-4-methoxyphenyl) acrylamide] | A (GI50 < 50 nM)
C=CC(=O)Nc1cc(Nc2cc(N3OCC[C@@H]3c3ccc(C)nc3)ncn2)c(OC)cc1N1CC[C@@H](N(C)C)C1 [Example 221, N-(2-((R)-3-(dimethylamino)pyrolidine-1-yl)-4-methoxy-5-((6-((R)-3-(6-methylpyridine-3-yl)isoxazolidine-2-yl)pyrimidine-4-yl)amino)phenyl) acrylamide] | B (50 nM ≤ GI50 < 500 nM)
C=CC(=O)Nc1cc(Nc2cc(N3OCC[C@@H]3Cc3ccccc3)ncn2)c(OC)cc1N1C[C@H]2C[C@@H]1CO2 [compound 957, N-(5-((6-((S)-3-benzylisoxazolidine-2-yl)pyrimidine-4-yl)amino)-2-((1R,4R)-2-oxa-5-azabicyclo [2.2.1]heptane-5-yl)-4-methoxyphenyl) acrylamide] | A (GI50 < 50 nM)
C=CC(=O)Nc1cc(Nc2cc(N3OCC[C@@H]3c3cc(F)cc(F)c3)ncn2)c(OC)cc1N1CCC(N2CCOC[C@@H]2C)CC1 [compound 843, N-(5-((6-((R)-3-(3,5-difluorophenyl)isoxazolidine-2-yl)pyrimidine-4-yl)amino)-4-methoxy-2-(4-((S)-3-methylmorpholino)piperidine-1-yl)phenyl) acrylamide] | A (GI50 < 50 nM)
C=CC(=O)Nc1cc(Nc2cc(N3OCC[C@@H]3c3c(F)ccc(F)c3F)ncn2)c(OC)cc1N1CCC(N2CCN(C(C)C)CC2)CC1 [compound 643, N-(2-(4-(4-isopropylpiperazine-1-yl)piperidine-1-yl)-4-methoxy-5-((6-((R)-3-(2,3,6-trifluorophenyl)isoxazolidine-2-yl)pyrimidine-4-yl)amino)phenyl)acrylamide] | A (GI50 < 50 nM)
C=CC(=O)Nc1cc(Nc2cc(N3OCC[C@@H]3c3cc(F)cc(F)c3)ncn2)c(C)cc1N1CCC(N2CCN(C3CC3)CC2)CC1 [compound 534, N-(2-(4-(4-cyclopropylpiperazine-1-yl)piperidine-1-yl)-5-((6-((R)-3-(3,5-difluorophenyl)isoxazolidine-2-yl)pyrimidine-4-yl)amino)-4-methylphenyl) acrylamide] | A (GI50 < 50 nM)
C#Cc1cccc([C@H]2CCON2c2cc(Nc3cc(NC(=O)C=C)c(N4CCC(N5C[C@@H]6C[C@H]5CO6)CC4)cc3OC)ncn2)c1 [compound 618, N-(2-(4-((1S,4S)-2-oxa-5-azabicyclo[2.2.1]heptane-5-yl)piperidine-1-yl)-5-((6-((R)-3-(3-ethynylphenyl)isoxazolidine-2-yl)pyrimidine-4-yl)amino)-4-methoxyphenyl) acrylamide] | A (GI50 < 50 nM)
C=CC(=O)Nc1cc(Nc2cc(N3OCC[C@@H]3c3ccc(Cl)c(Cl)c3)ncn2)c(OC)cc1N1CCN(CC2CC2)CC1 [compound 687, N-(2-(4-(cyclopropylmethyl)piperazine-1-yl)-5-((6-((R)-3-(3,4-dichlorophenyl)isoxazolidine-2-yl)pyrimidine-4-yl)amino)-4-methoxyphenyl) acrylamide] | A (GI50 < 50 nM)
C=CC(=O)Nc1cc(Nc2cc(N3OCC[C@@H]3c3cc(F)cc(F)c3)ncn2)c(OC)cc1N1CCC(N2C[C@H]3CC[C@@H](C2)O3)CC1 [compound 759, N-(2-(4-((1R,5S)-8-oxa-3-azabicyclo [3.2.1]octan-3-yl)piperidine-1-yl)-5-((6-((R)-3-(3,5-difluorophenyl)isoxazolidine-2-yl)pyrimidine-4-yl)amino)-4-methoxyphenyl) acrylamide] | B (50 nM ≤ GI50 < 500 nM)
C=CC(=O)Nc1cc(Nc2cc(N3OCC[C@H]3Cc3ccccc3)ncn2)c(OC)cc1N1CCOCC1 [compound 966, N-(5-((6-((R)-3-benzylisoxazolidine-2-yl)pyrimidine-4-yl)amino)-4-methoxy-2-morpholinophenyl) acrylamide] | C (500 nM ≤ GI50 < 5000 nM)
C=CC(=O)Nc1cc(Nc2cc(N3OCC[C@@H]3c3cccc4ccccc34)ncn2)c(OC)cc1N1CCC(N2C[C@@H](C)O[C@@H](C)C2)CC1 [compound 491, N-(2-(4-((2S,6R)-2,6-dimethylmorpholino)piperidine-1-yl)-4-methoxy-5-((6-((R)-3-(naphthalene-1-yl)isoxazolidine-2-yl)pyrimidine-4-yl)amino)phenyl)acrylamide] | B (50 nM ≤ GI50 < 500 nM)

From US12157730B2, “Heteroaryl derivative, method for producing same, and pharmaceutical composition comprising same as effective component” (VORONOI INC., priority 2019, dated 2024)
